Earlier results as cited in patent US20180055813A1, “COMPOSITIONS AND METHODS FOR TREATING ATRIAL FIBRILLATION” (Edge Therapeutics, Inc., priority 2016, published 2018).
Where two headings read alike, the source gives them in different places.

How the values were obtained:
N-type calcium current = N-type calcium current (Homo sapiens, UniProt Q00975); details: at 300 nM to 500 nM
[1] = system: K+ and Na+ currents, and L, P/Q and T-type calcium currents
[2] = phase III clinical trials, compared with placebo
[3] = for incidence of postoperative AF: AFIST I, patients >60 years
[4] = system: high-plateau action potentials
[5] = system: voltage-dependent sodium channels; details: relative to phenytoin

Chain of N-type calcium current (Q00975 whole entry): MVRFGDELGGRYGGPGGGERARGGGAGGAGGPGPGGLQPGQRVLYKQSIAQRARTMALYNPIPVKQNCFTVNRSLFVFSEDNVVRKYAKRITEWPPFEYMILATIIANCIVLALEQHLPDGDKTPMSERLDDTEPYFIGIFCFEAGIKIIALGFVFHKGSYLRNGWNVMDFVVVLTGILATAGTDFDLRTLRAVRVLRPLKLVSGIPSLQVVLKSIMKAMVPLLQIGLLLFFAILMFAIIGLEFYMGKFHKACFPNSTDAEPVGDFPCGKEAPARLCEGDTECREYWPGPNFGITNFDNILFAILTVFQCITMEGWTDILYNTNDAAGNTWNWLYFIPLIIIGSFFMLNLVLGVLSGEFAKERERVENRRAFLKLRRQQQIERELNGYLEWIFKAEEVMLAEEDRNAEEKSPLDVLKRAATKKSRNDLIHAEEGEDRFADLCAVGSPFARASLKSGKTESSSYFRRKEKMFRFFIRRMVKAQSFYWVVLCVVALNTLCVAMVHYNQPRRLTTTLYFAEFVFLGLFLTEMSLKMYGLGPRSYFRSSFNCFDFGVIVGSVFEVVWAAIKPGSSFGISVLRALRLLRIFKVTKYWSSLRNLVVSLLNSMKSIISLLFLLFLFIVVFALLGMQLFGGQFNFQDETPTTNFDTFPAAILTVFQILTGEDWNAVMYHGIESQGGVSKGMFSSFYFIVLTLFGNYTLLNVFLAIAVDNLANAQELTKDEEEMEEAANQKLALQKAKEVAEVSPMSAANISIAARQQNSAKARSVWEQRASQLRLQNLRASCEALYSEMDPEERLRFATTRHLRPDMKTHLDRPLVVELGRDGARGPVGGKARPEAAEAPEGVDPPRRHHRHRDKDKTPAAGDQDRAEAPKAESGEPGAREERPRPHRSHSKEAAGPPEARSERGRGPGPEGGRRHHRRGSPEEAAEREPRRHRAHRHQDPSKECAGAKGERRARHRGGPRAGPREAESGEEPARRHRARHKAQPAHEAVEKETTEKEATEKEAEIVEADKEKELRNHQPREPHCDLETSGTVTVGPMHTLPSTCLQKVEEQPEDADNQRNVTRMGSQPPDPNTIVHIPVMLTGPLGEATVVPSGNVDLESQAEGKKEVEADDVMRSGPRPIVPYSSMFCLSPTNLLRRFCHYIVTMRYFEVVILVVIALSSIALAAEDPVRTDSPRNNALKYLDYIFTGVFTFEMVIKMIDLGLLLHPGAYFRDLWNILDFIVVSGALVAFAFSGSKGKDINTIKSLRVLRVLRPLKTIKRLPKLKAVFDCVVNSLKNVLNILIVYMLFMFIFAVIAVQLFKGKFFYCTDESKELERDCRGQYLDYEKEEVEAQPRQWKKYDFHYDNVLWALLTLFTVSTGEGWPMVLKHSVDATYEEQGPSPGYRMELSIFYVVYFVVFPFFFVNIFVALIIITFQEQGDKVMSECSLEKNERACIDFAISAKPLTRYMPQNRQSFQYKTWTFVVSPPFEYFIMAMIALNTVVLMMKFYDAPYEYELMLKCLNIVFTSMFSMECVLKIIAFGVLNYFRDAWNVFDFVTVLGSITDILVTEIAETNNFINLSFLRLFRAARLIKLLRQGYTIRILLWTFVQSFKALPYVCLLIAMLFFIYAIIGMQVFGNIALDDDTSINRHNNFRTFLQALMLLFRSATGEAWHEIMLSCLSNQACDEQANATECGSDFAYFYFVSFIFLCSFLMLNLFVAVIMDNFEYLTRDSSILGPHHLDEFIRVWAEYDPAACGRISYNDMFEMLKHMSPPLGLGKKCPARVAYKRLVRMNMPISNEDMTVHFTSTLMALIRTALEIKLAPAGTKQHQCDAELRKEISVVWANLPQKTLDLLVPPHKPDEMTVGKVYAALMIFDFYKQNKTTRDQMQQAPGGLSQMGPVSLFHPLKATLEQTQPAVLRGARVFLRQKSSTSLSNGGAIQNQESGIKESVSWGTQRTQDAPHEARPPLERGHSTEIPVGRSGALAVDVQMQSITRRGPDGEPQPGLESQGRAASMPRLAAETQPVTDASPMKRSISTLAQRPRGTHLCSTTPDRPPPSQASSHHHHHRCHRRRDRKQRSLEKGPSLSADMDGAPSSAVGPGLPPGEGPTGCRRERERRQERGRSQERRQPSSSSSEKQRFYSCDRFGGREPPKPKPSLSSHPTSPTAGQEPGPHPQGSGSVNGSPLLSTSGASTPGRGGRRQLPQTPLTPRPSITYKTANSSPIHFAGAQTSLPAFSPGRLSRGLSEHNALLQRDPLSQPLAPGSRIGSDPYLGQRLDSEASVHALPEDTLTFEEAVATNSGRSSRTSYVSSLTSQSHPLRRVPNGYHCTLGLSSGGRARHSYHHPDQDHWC

**Q.** For SNX-482, which “N-type calcium current blocked” value (N-type calcium current) is on record?
**A.** Its value is 30-50%.

**Q.** What about the “block of R-type calcium current” value (R-type calcium current; neurohypophysial nerve endings, 40 nM concentration) of the same compound?
**A.** Its value is “blocks”.

**Q.** And the “effect on R-type current” value (R-type calcium current; preparations of the neuronal cell body, retinal ganglion cells and hippocampal pyramidal cells)?
**A.** The value was “no significant effect”.

**Q.** And the “effect on K+ and Na+ currents, and L, P/Q and T-type calcium currents” value [1]?
**A.** The value was “no effect”.

**Q.** Which “relative risk reduction for the development of AF” value (compared to placebo) does the source give for `CCOC(=O)[C@H](CCc1ccccc1)N[C@@H](C)C(=O)N1CCC[C@H]1C(=O)O` [enalapril] here?
**A.** Its value is 78%.

**Q.** For `CCCCC1=NC2(CCCC2)C(=O)N1Cc1ccc(-c2ccccc2-c2nnn[nH]2)cc1` [irbesartan], which “prevention of recurrence of AF” value (irbesartan plus amiodarone versus amiodarone alone) is on record?
**A.** The value was “more effectively than amiodarone alone”.

**Q.** Which “lowering of risk of AF relapse” value [2] does the source give for `CCCCc1oc2ccc(NS(C)(=O)=O)cc2c1C(=O)c1ccc(OCCCN(CCCC)CCCC)cc1` [dronedarone, n-(2-butyl-3-(4-(3-dibutylaminopropoxy)-benzoyl)benzofuran-5-yl)-methanesulfonamide] here?
**A.** The value was 25%.

**Q.** Which “incidence of postoperative AF, patients” value ([3]; 1-week pre-operative oral regimen, placebo 53%) does the source give for `CCCCc1oc2ccccc2c1C(=O)c1cc(I)c(OCCN(CC)CC)c(I)c1` [amiodarone] here?
**A.** Its value is 25%.

**Q.** What about the “incidence of postoperative AF” value ([3]; amiodarone alone) of the same compound?
**A.** The value was 35%.

**Q.** And the “incidence of postoperative AF” value ([3]; amiodarone with concomitant postoperative β-blockers)?
**A.** The value was 16%.

**Q.** And the “incidence of postoperative AF, patients” value ([3]; postoperative intravenous treatment, placebo 47%)?
**A.** Its value is 35%.

**Q.** What about the “incidence of postoperative AF, patients” value ([3]; treatment throughout the peri-operative period, placebo 25%) of the same compound?
**A.** The value was 16%.

**Q.** For `Cc1oc2ccccc2c1Cc1cc(I)c(OCC(=O)O)c(I)c1` [KB130015, 2-methyl-3-(3,5-diiodo-4-carboxymethoxybenzyl)benzofuran], which “QT lengthening / prolongation of high-plateau action potentials” value [4] is on record?
**A.** Its value is “devoid of QT lengthening effects”.

**Q.** For `NC(=O)N1c2ccccc2C=Cc2ccccc21` [carbamazepine], which “faster rate of binding to depolarized channels compared to phenytoin” value [5] is on record?
**A.** Its value is 5 fold.

**Q.** And the “lower affinity for depolarized channels compared to phenytoin” value [5]?
**A.** The value was 3 fold.
